Laboratory results published in the supplement of paper PMC10307832.

Columns and labels:
Test in all cases: relative viability (nuclei count vs DMSO), 5 days (fraction); higher = more cells survive
BAM7 + Trametinib = compound: CCOC1=CC=CC=C1N=NC2=C(NN(C2=O)C3=NC(=CS3)C4=CC=CC=C4)C [BAM7] + CC(=O)Nc1cccc(-n2c(=O)n(C3CC3)c(=O)c3c(Nc4ccc(I)cc4F)n(C)c(=O)c(C)c32)c1 [Trametinib] (partner 0.02 µM)
Outline: (§1)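 After 5 days of treatment, lung cancer cells in 1536-well plates were fixed and stained in a single step (final 0.05% Triton X-100, 1% formaldehyde, 1 ug/ml Hoechst) and their nuclei counted on 4× images. Treatment had been applied by pin tool the day after seeding as one drug alone or as a fixed anchor-drug dose with five library-drug doses (not always all listed) in √10 steps. Relative viability is the nuclei count of treated wells divided by that of vehicle wells, and values are medians of duplicate plates.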

BAM7 + Foretinib = compound: CCOC1=CC=CC=C1N=NC2=C(NN(C2=O)C3=NC(=CS3)C4=CC=CC=C4)C [BAM7] + COc1cc2c(Oc3ccc(NC(=O)C4(C(=O)Nc5ccc(F)cc5)CC4)cc3F)ccnc2cc1OCCCN1CCOCC1 [Foretinib] (partner 0.25 µM)
Outline: as §1

BAM7 + Navitoclax = compound: CCOC1=CC=CC=C1N=NC2=C(NN(C2=O)C3=NC(=CS3)C4=CC=CC=C4)C [BAM7] + CC1(C)CCC(c2ccc(Cl)cc2)=C(CN2CCN(c3ccc(C(=O)NS(=O)(=O)c4ccc(N[C@H](CCN5CCOCC5)CSc5ccccc5)c(S(=O)(=O)C(F)(F)F)c4)cc3)CC2)C1 [Navitoclax] (partner 0.5 µM)
Outline: as §1

BAM7 + Tozasertib = compound: CCOC1=CC=CC=C1N=NC2=C(NN(C2=O)C3=NC(=CS3)C4=CC=CC=C4)C [BAM7] + Cc1cc(Nc2cc(N3CCN(C)CC3)nc(Sc3ccc(NC(=O)C4CC4)cc3)n2)n[nH]1 [Tozasertib] (partner 0.1 µM)
Outline: as §1

UMC-11
relative viability (BAM7 + Trametinib; first compound 0.5 µM): 0.694 | relative viability (BAM7 + Trametinib; first compound 5 µM): 0.83 | relative viability (BAM7 + Trametinib; first compound 15.81 µM): 0.728 | relative viability (BAM7 + Trametinib; first compound 50 µM): 0.71 | relative viability (BAM7 + Foretinib; first compound 0.5 µM): 1.03 | relative viability (BAM7 + Foretinib; first compound 5 µM): 1.09 | relative viability (BAM7 + Foretinib; first compound 15.81 µM): 1.13 | relative viability (BAM7 + Foretinib; first compound 50 µM): 1.07 | relative viability (BAM7 + Navitoclax; first compound 0.5 µM): 0.306 | relative viability (BAM7 + Navitoclax; first compound 5 µM): 0.319 | relative viability (BAM7 + Navitoclax; first compound 15.81 µM): 0.391 | relative viability (BAM7 + Navitoclax; first compound 50 µM): 0.372 | relative viability (BAM7 + Tozasertib; first compound 0.5 µM): 0.2 | relative viability (BAM7 + Tozasertib; first compound 5 µM): 0.202 | relative viability (BAM7 + Tozasertib; first compound 15.81 µM): 0.196 | relative viability (BAM7 + Tozasertib; first compound 50 µM): 0.198
